ChEMBL document CHEMBL3091370, “3,5-bis(benzylidene)-4-piperidones and related N-acyl analogs: a novel cluster of antimalarials targeting the liver stage of Plasmodium falciparum” (Bioorg Med Chem, 2013)
≈ marks a conversion by molar mass, not a printed value.

Columns and labels:
Plasmodium falciparum [1] = experiment: Antimalarial activity against drug-sensitive Plasmodium falciparum D6 after 72 hrs by SYBR green I staining-based fluorescence assay; type: functional, organism-based; details: D6, 72 h
Plasmodium falciparum [2] = experiment: Antimalarial activity against drug-resistant Plasmodium falciparum C235 after 72 hrs by SYBR green I staining-based fluorescence assay; type: functional, organism-based; details: C235, 72 h
Plasmodium falciparum [3] = experiment: Ratio of IC50 for drug-resistant Plasmodium falciparum C235 to IC50 for drug-sensitive Plasmodium falciparum D6; type: functional
[4] = Apparent permeability from basolateral to apical side in MDCK cells at 10 uM after 1 hr by LC/MS analysis; type: ADME, cell-based, Canis lupus familiaris; details: dog
[5] = Half life in mouse plasma at 1 mM by LC/MS analysis; type: ADME, cell-free
HepG2 = experiment: Cytotoxicity against human HepG2 cells after 48 hrs by MTT assay; type: cell-based; details: HepG2, 48 h
[6] = Half life in human plasma at 1 mM by LC/MS analysis; type: ADME, cell-free
[7] = Efflux ratio of apparent permeability from basolateral to apical side to apical to basolateral side in MDCK cells; type: ADME, cell-based, Canis lupus familiaris; details: dog
Plasmodium berghei [8] = experiment: Antimalarial activity against liver stage Plasmodium berghei ANKA sporozoites infected in human HepG2 cells after 48 hrs by luciferase reporter gene assay; type: functional, organism-based; details: HepG2, 48 h
Plasmodium berghei [9] = experiment: Ratio of mefloquine IC50 to compound IC50 for liver stage Plasmodium berghei ANKA sporozoites infected in human HepG2 cells; type: functional
[10] = Apparent permeability from apical to basolateral side in MDCK cells at 10 uM after 1 hr by LC/MS analysis; type: ADME, cell-based, Canis lupus familiaris; details: dog
Plasmodium berghei [11] = experiment: Ratio of chloroquine IC50 to compound IC50 for liver stage Plasmodium berghei ANKA sporozoites infected in human HepG2 cells; type: functional

| SMILES | IC50 (Plasmodium falciparum [1]) [µg/mL] | IC50 (Plasmodium falciparum [2]) [µg/mL] | Ratio IC50 (Plasmodium falciparum [3]) | Papp B→A at 1 h, 10 µM [4] [×10⁻⁶ cm/s] | half-life [5] [min] | IC50 (HepG2) [µg/mL] | half-life [6] [min] | efflux ratio [7] | IC50 (Plasmodium berghei [8]) [µg/mL] | Ratio IC50 (Plasmodium berghei [9]) | Papp A→B at 1 h, 10 µM [10] [×10⁻⁶ cm/s] | Ratio IC50 (Plasmodium berghei [11]) |
| --- | --- | --- | --- | --- | --- | --- | --- | --- | --- | --- | --- | --- |
| Cc1ccc(/C=C2\CN(C(=O)c3ccc(OCCN4CCCCC4)cc3)C/C(=C\c3ccc(C)cc3)C2=O)cc1.Cl | 0.682 | 0.713 | 1.05 | – | – | – | – | – | – | – | – | – |
| O=C1/C(=C/c2ccccc2)CNC/C1=C\c1ccccc1 | 0.139 (≈ 0.505 µM) | 0.162 (≈ 0.588 µM) | 1.17 | 0.1 | 19.5 | > 2 | 11.8 | 0.02 | 0.0935 (≈ 0.34 µM) | >21 | 5.74 | >21 |
| CCN(CC)CCOc1ccc(C(=O)N2C/C(=C\c3ccc([N+](=O)[O-])cc3)C(=O)/C(=C/c3ccc([N+](=O)[O-])cc3)C2)cc1.Cl | 0.202 | 0.146 | 0.72 | – | – | > 2 | – | – | 0.186 | – | – | – |
| CN(C)CCOc1ccc(C(=O)N2C/C(=C\c3ccccc3)C(=O)/C(=C/c3ccccc3)C2)cc1.Cl | 1.75 | > 2 | >1.14 | – | – | – | – | – | – | – | – | – |
| Cl.O=C1/C(=C/c2ccc([N+](=O)[O-])cc2)CN(C(=O)c2ccc(OCCN3CCCCC3)cc2)C/C1=C\c1ccc([N+](=O)[O-])cc1 | 0.25 | 0.288 | 1.15 | – | – | > 2 | – | – | 0.165 | – | – | – |
| CN(C)CCOc1ccc(C(=O)N2C/C(=C\c3ccc([N+](=O)[O-])cc3)C(=O)/C(=C/c3ccc([N+](=O)[O-])cc3)C2)cc1.Cl | 0.424 | 0.372 | 0.88 | – | – | > 2 | – | – | 0.31 | – | – | – |
| Cl.O=C1/C(=C/c2ccccc2)CN(C(=O)c2ccc(OCCN3CCCCC3)cc2)C/C1=C\c1ccccc1 | 0.794 | 0.74 | 0.93 | – | – | – | – | – | – | – | – | – |
| CN(C)CCOc1ccc(C(=O)N2C/C(=C\c3ccc(Cl)cc3)C(=O)/C(=C/c3ccc(Cl)cc3)C2)cc1.Cl | 0.497 | 0.565 | 1.14 | – | – | – | – | – | – | – | – | – |
| CCN(CC)CCOc1ccc(C(=O)N2C/C(=C\c3ccc(C)cc3)C(=O)/C(=C/c3ccc(C)cc3)C2)cc1.Cl | 0.536 | 0.555 | 1.03 | – | – | > 2 | – | – | 0.483 | – | – | – |
| Cl.O=C1/C(=C/c2ccccc2)CN(C(=O)c2ccc(OCCN3CCOCC3)cc2)C/C1=C\c1ccccc1 | 1.42 | > 2 | >1.41 | – | – | – | – | – | – | – | – | – |
| CCN(CC)CCCC(C)Nc1ccnc2cc(Cl)ccc12.O=P(O)(O)O.O=P(O)(O)O (stereo not drawn) [CHLOROQUINE PHOSPHATE] | – | – | – | – | – | > 2 | – | – | > 2 | – | – | – |
| O=C1/C(=C/c2ccc(Cl)cc2)CNC/C1=C\c1ccc(Cl)cc1 | 0.103 (≈ 0.299 µM) | 0.128 (≈ 0.372 µM) | 1.24 | – | > 60 | > 2 | > 60 | – | 0.597 (≈ 1.73 µM) | – | – | – |
| CCN(CC)CCOc1ccc(C(=O)N2C/C(=C\c3ccc(Cl)cc3)C(=O)/C(=C/c3ccc(Cl)cc3)C2)cc1.Cl | > 2 | > 2 | – | – | – | – | – | – | – | – | – | – |
| O[C@@H](c1cc(C(F)(F)F)nc2c(C(F)(F)F)cccc12)[C@H]1CCCCN1 (relative stereo) [(S,R)-MEFLOQUINE] | 0.0066 (≈ 0.0174 µM) | 0.0167 (≈ 0.0441 µM) | 2 | 3.7 | > 60 | > 2 | > 60 | 6.17 | > 2 | – | 0.6 | – |
| CCN(CC)CCOc1ccc(C(=O)N2C/C(=C\c3ccccc3)C(=O)/C(=C/c3ccccc3)C2)cc1.Cl | 0.412 | 0.311 | 0.76 | – | – | > 2 | – | – | 0.383 | – | – | – |
| Cc1ccc(/C=C2\CN(C(=O)c3ccc(OCCN(C)C)cc3)C/C(=C\c3ccc(C)cc3)C2=O)cc1.Cl | > 2 | > 2 | – | – | – | > 2 | – | – | > 2 | – | – | – |
| Cl.O=C1/C(=C/c2ccc(Cl)cc2)CN(C(=O)c2ccc(OCCN3CCCCC3)cc2)C/C1=C\c1ccc(Cl)cc1 | > 2 | > 2 | >1.06 | – | – | – | – | – | – | – | – | – |
| Cc1ccc(/C=C2\CN(C(=O)c3ccc(OCCN4CCOCC4)cc3)C/C(=C\c3ccc(C)cc3)C2=O)cc1.Cl | 0.846 | > 2 | >2.36 | – | – | – | – | – | – | – | – | – |
| Cc1ccc(/C=C2\CNC/C(=C\c3ccc(C)cc3)C2=O)cc1 | 0.249 (≈ 0.821 µM) | 0.285 (≈ 0.939 µM) | 1.15 | – | 14.6 | > 2 | 17.2 | – | 0.159 (≈ 0.524 µM) | – | – | – |
| Cl.O=C1/C(=C/c2ccc([N+](=O)[O-])cc2)CN(C(=O)c2ccc(OCCN3CCOCC3)cc2)C/C1=C\c1ccc([N+](=O)[O-])cc1 | 0.433 | 0.53 | 1.22 | – | – | > 2 | – | – | 0.357 | – | – | – |
| O=C1/C(=C/c2ccc([N+](=O)[O-])cc2)CNC/C1=C\c1ccc([N+](=O)[O-])cc1 | 0.0375 (≈ 0.103 µM) | 0.0412 (≈ 0.113 µM) | 1.1 | – | 22.5 | > 2 | > 60 | 0.01 | 0.356 (≈ 0.974 µM) | – | 0.28 | – |
| CCN(CC)CCCC(C)Nc1ccnc2cc(Cl)ccc12 (stereo not drawn) [CHLOROQUINE] | – | – | – | 14 | > 60 | – | > 60 | – | – | – | 13 | – |
